Measured values reported in patent US9255272B2, “Use of inhibitors of leukotriene B4 receptor BLT2 for treating asthma” (Korea University Research & Business Foundation, priority 2007, dated 2016).

How the values were obtained:
eosinophil = conditions: concentration of 10 μM; cited from earlier work
[1] = biological target: eosinophil membranes (LTB4 binding); conditions: read-out: IC50 for inhibition of the binding of radiolabeled LTB4 to eosinophil membranes; cited from earlier work
LTB4 = LTB4 level in BAL fluid (EIA); format: in vivo, mouse; conditions: antisense BLT2 1.6 mg/kg i.v. 24 h and 1 h before 10% OVA; 48 h
Protocol: Female BALB/c mice and C57BL/6 mice (7 weeks old; 18-20 g) were obtained from Orientbion Inc. (Seoungnam, Korea). Sensitization and challenge were carried out as described previously with some modification (28). Briefly, female C57BL/6 mice (7 weeks old; 18-20 g) were immunized by intraperitoneal (i.p.) injection of 200 μg ovalbumin (OVA) emulsified in 2.5 mg of adjuvant aluminum hydroperoxide gel (alum) (Pierce, Rockford, Ill.). A second i.p. injection of 20 μg OVA adsorbed onto alum (2.5 mg) was administered 10 days later. After an additional 10 days, mice were exposed to an aerosol of 1% OVA in saline for 30 min daily on 3 consecutive days. On day 25, mice were finally challenged by provocation with 10% OVA aerosol. For inhibition experiments, sense or antisense BLT2 (1.6 mg/kg) was injected intravenously 24 h and then 1 h before the 10% OVA challenge. The mice were then killed on day 27 to assess asthmatic phenotypes. […]
Levels of LTB4 were quantified with the leukotriene B4 enzyme immunoassay (EIA) Biotrak™ system (Amersham Biosciences, UK). […] Substrate (tetramethylbenzidine) was then added, and the reaction was stopped by adding an acid solution and the color read at 450 nm in a spectrophotometer. […] Statistical significance of differences between groups was assessed by analysis of variance, and P<0.05 was considered significant.

BLT1 mRNA = BLT1 mRNA level in lung of OVA-challenged mice (semiquantitative RT-PCR); format: in vivo, mouse; conditions: C57BL/6 mice, 1.6 mg/kg i.v. 24 hr and 1 hr before 10% OVA challenge
Protocol: (§1) Female BALB/c mice and C57BL/6 mice (7 weeks old; 18-20 g) were obtained from Orientbion Inc. (Seoungnam, Korea). Sensitization and challenge were carried out as described previously with some modification (28). Briefly, female C57BL/6 mice (7 weeks old; 18-20 g) were immunized by intraperitoneal (i.p.) injection of 200 μg ovalbumin (OVA) emulsified in 2.5 mg of adjuvant aluminum hydroperoxide gel (alum) (Pierce, Rockford, Ill.). A second i.p. injection of 20 μg OVA adsorbed onto alum (2.5 mg) was administered 10 days later. After an additional 10 days, mice were exposed to an aerosol of 1% OVA in saline for 30 min daily on 3 consecutive days. On day 25, mice were finally challenged by provocation with 10% OVA aerosol. For inhibition experiments, sense or antisense BLT2 (1.6 mg/kg) was injected intravenously 24 h and then 1 h before the 10% OVA challenge. The mice were then killed on day 27 to assess asthmatic phenotypes. Antisense BLT2 oligonucleotide (5′-[…]-3′ (SEQ ID NO: 15)), sense BLT2 oligonucleotide (5′-[…]-3′ (SEQ ID NO: 16)).
Total RNA was extracted from lung samples using Easy-blue RNA extraction reagent (Intron, Korea). […] For the semiquantitative analysis of transcripts, the optimal PCR conditions were first determined by linear amplification of glyceraldehyde-3-phosphate dehydrogenase (GAPDH). […]

OVA-challenged mice = assay: Recruitment of CD4+ and CD8+ T cells into BAL fluid (flow cytometry); format: in vivo, mouse; conditions: BAL fluid 12 hr after 10% OVA challenge
Description: FIGS. 8a and 8b show recruitment of T lymphocytes into airways. FIG. 8a depicts FACS analysis showing recruitment of CD4+ T cells into the BAL fluid of mice 12 hr after aerosol OVA challenge. FIG. 8b depicts FACS analysis showing recruitment of CD8+ T cells into the BAL fluid of mice 12 hr after aerosol OVA challenge. BAL fluid was collected 12 hr after 10% OVA challenge and washed with PBS. The leukocytes present were stained with FITC-conjugated anti-mouse TCR chain and PE-cy5 anti-mouse CD8a or PE rat anti-mouse CD4 after blocking with anti-FcRyantibody. Samples were then analyzed by flow cytometry to assess T lymphocyte recruitment. Data are means±SEM (n=6 in each group). *P<0.05 vs. OVA/asBLT2. For flow cytometric analysis, the cells in the BAL fluid were suspended in 50 μl of PBS containing 0.01% sodium azide and 0.1% BSA. BAL leukocytes were incubated for 30 min with 2.4G2 anti-FcγIII/II receptor (BD PharMingen) and stained for 30 min at 4° C. with FITC-conjugated anti-mouse TCR. chain (BD PharMingen) and PE-cy5 anti-mouse CD8a (BD PharMingen) or PE rat anti-mouse CD4 (BD PharMingen). Cytofluorimetry was performed with a FACS Caiibur™ (Becton Dickinson, Franklin Lakes, N.J.), and the results were analyzed with CellQuest software (Becton-Dickinson).

ROS = ROS levels in BAL fluid cells (DCF fluorescence, FACS); format: in vivo, mouse; conditions: 1.6 mg/kg i.v. 24 hr and 1 hr before 10% OVA; BAL fluid 48 h after challenge
Protocol: as §1
ROS levels in BAL fluids were measured as a function of DCF fluorescence as described previously (30). […] DCF fluorescence was excited at 488 nm and the evoked emission was filtered with a 515-nm long-pass filter. […]

Row | Compound | inhibition of eosinophil chemotaxis (eosinophil) [%] | IC50 [1] [nM] | suppression of the level of LTB4 in BAL fluid (LTB4) [%] | BLT1 expression in the lung (mRNA) (BLT1 mRNA) | effect on T cell trafficking into airways (OVA-challenged mice) | reduction of ROS levels in BAL fluid (ROS) [%]
1 | CCc1cc(C(C)=O)c(O)cc1OCCCCCC(C)(C)c1nnn[nH]1 [LY255283, 1-[5-ethyl-2-hydroxy-4-[[6-methyl-6-(1H-tetrazol-5-yl)heptyl]oxy]phenyl]-ethanone, reference compound] | 80 | 260 | – | – | – | –
2 | antisense BLT2: Antisense BLT2 oligonucleotide 5′-GCTCAGTAGTGTCTCATTCC-3′ (SEQ ID NO: 15) (listed as DNA, chemistry not fully specified) | – | – | −72 | without interfering | no inhibitory effect | −70
